According to publication PMC8597116 (Clinical Pharmacology in Drug Development, 2021):
“And” between values parts separate entries of the source, which are not always exact repeats. Equal entries are not always repeated. Where two headings read alike, the source gives them in different places. Blank lines part the entries; values can stand above or below the compound they belong to.

How the values were obtained:
[1] = for MPR AUC0‐t (metabolite‐to‐parent ratio) / MPR AUCinf (metabolite‐to‐parent ratio) / MPR Cmax (metabolite‐to‐parent, 5‐HVLX‐gluc to viloxazine, ratio): adjusted for molecular weights; for AUC0‐t, geometric mean / AUCinf, geometric mean / Cmax, geometric mean: geometric least‐squares mean of log‐transformed values
[2] = Steady-state plasma pharmacokinetics of paroxetine, healthy adults; format: in vivo, human
[3] = Safety monitoring: treatment-related adverse events in healthy adults; format: in vivo, human; conditions: n = 22 per treatment period
CYP2D6 [4] = conditions: read-out: CYP2D6 IC50; cited from earlier work
CYP2D6 [5] = conditions: cited from earlier work
CYP3A4/5 = conditions: read-out: CYP3A4/5 IC50; two values given; cited from earlier work
CYP1A2 = conditions: cited from earlier work
CYP2B6 = conditions: read-out: CYP2B6 IC50; cited from earlier work
CYP2C8 = conditions: read-out: CYP2C8 IC50; cited from earlier work
clinical = conditions: human, plasma, oral
CYP2C9 = conditions: read-out: CYP2C9 IC50; cited from earlier work
CYP2C19 = conditions: read-out: CYP2C19 IC50; cited from earlier work
[6] = Combination (period 3), mean ± SD
[7] = SPN‐812 alone (period 1), 700 mg single dose, plasma, mean ± SD
[8] = SPN‐812 alone (period 1), mean ± SD
[9] = combination versus SPN‐812 alone
[10] = geometric LS mean ratio, period 3/period 1
[11] = paroxetine 20 mg QD coadministration
[12] = day 13, paroxetine 20 mg once daily, mean ± SD

MPR AUC0‐t (metabolite‐to‐parent ratio) [1, 6]: 0.31 ± 0.08 (25.2%)
MPR AUCinf (metabolite‐to‐parent ratio) [1, 6]: 0.31 ± 0.08 (25.1%)
MPR Cmax (metabolite‐to‐parent, 5‐HVLX‐gluc to viloxazine, ratio) [1, 6]: 0.33 ± 0.06 (19.2%)
AUC0‐t, geometric mean ([1]; Combination (period 3)): 60.1
AUCinf, geometric mean ([1]; Combination (period 3)): 60.3
Cmax, geometric mean ([1]; Combination (period 3)): 2.8
AUC0‐t [1, 7]: 70.5 ± 19.6 (27.8%) μg·h/mL
AUCinf [1, 7]: 70.7 ± 19.7 (27.9%) μg·h/mL
Cmax [1, 7]: 3.5 ± 0.8 (24.2%) μg/mL
t1/2 [1, 7]: 5.7 ± 1.7 (29.6%) h
MPR AUC0‐t (metabolite‐to‐parent ratio) [1, 8]: 0.49 ± 0.15 (31.1%)
MPR AUCinf (metabolite‐to‐parent ratio) [1, 8]: 0.48 ± 0.15 (31.5%)
MPR Cmax (metabolite‐to‐parent, 5‐HVLX‐gluc to viloxazine, ratio) [1, 8]: 0.47 ± 0.12 (27.4%)
AUC0‐t, geometric mean ([1]; SPN‐812 alone (period 1)): 67.8
AUCinf, geometric mean ([1]; SPN‐812 alone (period 1)): 67.9
Cmax, geometric mean ([1]; SPN‐812 alone (period 1)): 3.4
delay of median Tmax after the combination compared with SPN‐812 alone [1, 9]: ≈ 3 hour
AUC0‐t ratio, combination/SPN‐812 alone (relative bioavailability) [1, 10]: 88.75% and 88.8%
AUCinf ratio, combination/SPN‐812 alone (relative bioavailability) [1, 10]: 88.77% and 88.8%
Cmax ratio, combination/SPN‐812 alone (relative bioavailability) [1, 10]: 83.05% and 83.1%
decrease in AUC0‐t after the combination versus SPN‐812 alone [1, 11]: 12%
decrease in AUCinf after the combination versus SPN‐812 alone [1, 11]: 12%
decrease in Cmax after the combination versus SPN‐812 alone [1, 11]: 17%
Structure (SMILES): CCOc1ccc(O[C@@H]2O[C@H](C(=O)O)[C@@H](O)[C@H](O)[C@H]2O)cc1OCC1CNCCO1 (stereo partly drawn) [5‐HVLX‐gluc, 5‐hydroxyviloxazine glucuronide]

Cavg [2, 12]: 29.6 ± 15.7 ng/mL
Cmin,ss [2, 12]: 22.3 ± 13.4 ng/mL
AUC ([2]; human, plasma, oral, 20 mg): 709 ± 377 ng·h/mL
Cmax ([2]; human, plasma, oral, 20 mg): 39 ± 19 ng/mL
Tmax ([2]; human, plasma, oral, 20 mg): 6 h
Structure (SMILES): Fc1ccc([C@@H]2CCNC[C@H]2COc2ccc3c(c2)OCO3)cc1 [Paroxetine, paroxetine]
Abnormal dreams (treatment‐related) [3]: 0 n (%)
Any adverse event (treatment‐related) [3]: 3 (13.6%) n (%)
Decreased appetite (treatment‐related) [3]: 0 n (%)
Diarrhea (treatment‐related) [3]: 3 (13.6%) n (%)
Dysgeusia (treatment‐related) [3]: 0 n (%)
Palpitations (treatment‐related) [3]: 0 n (%)
Somnolence (treatment‐related) [3]: 0 n (%)

change (increase) in AUC / exposure with CYP2D6 inhibition by paroxetine [1, 9]: < 35%
delay of median Tmax after the combination compared with SPN‐812 alone [1, 9]: ≈ 1 hour
increase in AUC0‐t after the combination versus SPN‐812 alone [1, 11]: under 35%
increase in AUCinf after the combination versus SPN‐812 alone [1, 11]: under 35%
increase in Cmax after the combination versus SPN‐812 alone [1, 11]: 16%
half-life (clinical; 700 mg): 5.2 ± 2.3 h
AUC (clinical; AUC0‐t, Combination (period 3): SPN‐812 700 mg + paroxetine 20 mg QD, mean ± SD): 112000 ± 23900 ng·h/mL
Structure (SMILES): CCOc1ccccc1OCC1CNCCO1 (stereo not drawn) [Viloxazine, viloxazine]
IC50 (CYP2D6 [4]): 141 µM
share of CYP2D6 in the formation of 5‐hydroxyviloxazine (CYP2D6 [5]): < 50%
IC50 (CYP3A4/5): 221 µM and 352 µM
IC50 (CYP1A2; read-out: CYP1A2 reversible inhibition IC50, reversible inhibition): 0.269 µM
IC50 (CYP1A2; read-out: CYP1A2 time‐dependent inhibition IC50, after 30 minute preincubation with nicotinamide adenine dinucleotide phosphate): 0.0436 µM
IC50 (CYP2B6): 184 µM
IC50 (CYP2C8): > 1010 µM
IC50 (CYP2C9): > 1010 µM
IC50 (CYP2C19): > 1010 µM
